Data taken from PubChem BioAssay AID248 (DTP/NCI, 2004).
“And” between values parts separate entries of the source, which are not always exact repeats. Equal entries are not always repeated. Toxic doses and inconclusive results are not listed. Cut-off read from the data, not from the text of the source: active = T/C of 150% or more; inactive = T/C below 125%.

System: L1210 leukemia ip in BDF1 mice, survival T/C
Assay: NCI In Vivo Anticancer Drug Screen. Data for tumor model L1210 Leukemia (intraperitoneal) in B6D2F1 (BDF1) mice
Settings: endpoint: mean survival time, higher = longer survival
Method in brief: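 Each compound was tested against a transplantable tumor grown in mice. The endpoint was survival, with treated animals benchmarked against vehicle controls as a simple ratio.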

[1] = dose: 100.0 mg/kg/injection, schedule: Q01DX009 (ip), vehicle: saline with Tween-80
[2] = dose: 200.0 mg/kg/injection, schedule: Q01DX009 (ip), vehicle: saline with Tween-80
[3] = dose: 50.0 mg/kg/injection, schedule: Q01DX001 (ip), vehicle: carboxymethylcellulose (CMC)
[4] = dose: 100.0 mg/kg/injection, schedule: Q01DX001 (ip), vehicle: carboxymethylcellulose (CMC)
[5] = dose: 200.0 mg/kg/injection, schedule: Q01DX001 (ip), vehicle: carboxymethylcellulose (CMC)
[6] = dose: 100.0 mg/kg/injection, schedule: Q04DX002 (ip), vehicle: saline with Tween-80
[7] = dose: 200.0 mg/kg/injection, schedule: Q04DX002 (ip), vehicle: saline with Tween-80
[8] = dose: 400.0 mg/kg/injection, schedule: Q04DX002 (ip), vehicle: saline with Tween-80
[9] = dose: 100.0 mg/kg/injection, schedule: Q01DX001 (ip), vehicle: saline with Tween-80
[10] = dose: 200.0 mg/kg/injection, schedule: Q01DX001 (ip), vehicle: saline with Tween-80
[11] = dose: 400.0 mg/kg/injection, schedule: Q01DX001 (ip), vehicle: saline with Tween-80

Measured: T/C

OCC[CH2][Sn]([c]1ccccc1)([c]1ccccc1)[c]1ccccc1
inactive: dose: 6.25 mg/kg/injection, schedule: Q04DX002 (ip), vehicle: saline with Tween-80 101 % of control | dose: 12.5 mg/kg/injection, schedule: Q04DX002 (ip), vehicle: saline with Tween-80 101 % of control | dose: 25.0 mg/kg/injection, schedule: Q04DX002 (ip), vehicle: saline with Tween-80 87 % of control | dose: 50.0 mg/kg/injection, schedule: Q01DX009 (ip), vehicle: saline with Tween-80 96 % of control | [1] 96 % of control | [2] 96 % of control

COc1c2c(cc3c1N(C)C(=O)CC3C)C(C)CC(=O)N2 (stereo not drawn)
inactive: dose: 75.0 mg/kg/injection, schedule: Q04DX003 (ip), vehicle: Klucel (hydroxypropylcellulose) (HPC) 98 % of control

CCOC(CN1CCOCC1)c1ccccc1 (stereo not drawn)
inactive: [3] 100 % of control | dose: 50.0 mg/kg/injection, schedule: Q01DX009 (ip), vehicle: carboxymethylcellulose (CMC) 93 % of control and 92 % of control | dose: 50.0 mg/kg/injection, schedule: Q04DX003 (ip), vehicle: carboxymethylcellulose (CMC) 102 % of control | [4] 99 % of control | dose: 100.0 mg/kg/injection, schedule: Q01DX009 (ip), vehicle: carboxymethylcellulose (CMC) 109 % of control and 91 % of control | dose: 100.0 mg/kg/injection, schedule: Q04DX002 (ip), vehicle: carboxymethylcellulose (CMC) 103 % of control and 105 % of control | dose: 100.0 mg/kg/injection, schedule: Q04DX003 (ip), vehicle: carboxymethylcellulose (CMC) 107 % of control | [5] 100 % of control | dose: 200.0 mg/kg/injection, schedule: Q01DX009 (ip), vehicle: carboxymethylcellulose (CMC) 106 % of control and 88 % of control | dose: 200.0 mg/kg/injection, schedule: Q04DX002 (ip), vehicle: carboxymethylcellulose (CMC) 106 % of control and 113 % of control | dose: 200.0 mg/kg/injection, schedule: Q04DX003 (ip), vehicle: carboxymethylcellulose (CMC) 104 % of control

CCOC(=O)COc1c(C(=O)OC)cc([N+](=O)[O-])cc1[N+](=O)[O-]
inactive: [6] 104 % of control | [7] 97 % of control | [8] 90 % of control

CN(CCO)N=Nc1ccccc1C#N
inactive: dose: 12.5 mg/kg/injection, schedule: Q01DX009 (ip), vehicle: other 103 % of control | dose: 25.0 mg/kg/injection, schedule: Q01DX009 (ip), vehicle: other 91 % of control | dose: 25.0 mg/kg/injection, schedule: Q04DX003 (ip), vehicle: other 95 % of control | dose: 50.0 mg/kg/injection, schedule: Q04DX003 (ip), vehicle: other 93 % of control | dose: 100.0 mg/kg/injection, schedule: Q04DX003 (ip), vehicle: other 95 % of control | dose: 200.0 mg/kg/injection, schedule: Q04DX003 (ip), vehicle: other 98 % of control | dose: 400.0 mg/kg/injection, schedule: Q04DX003 (ip), vehicle: other 98 % of control

N#CCOc1cc(Cl)c(Cl)cc1Cl
inactive: dose: 100.0 mg/kg/injection, schedule: Q04DX002 (ip), vehicle: Klucel (hydroxypropylcellulose) (HPC) 107 % of control | dose: 200.0 mg/kg/injection, schedule: Q04DX002 (ip), vehicle: Klucel (hydroxypropylcellulose) (HPC) 97 % of control

O=C(COc1ccc(Cl)cc1)NNc1ccccc1
inactive: dose: 100.0 mg/kg/injection, schedule: Q04DX002 (ip), vehicle: saline 100 % of control | dose: 200.0 mg/kg/injection, schedule: Q04DX002 (ip), vehicle: saline 96 % of control | dose: 400.0 mg/kg/injection, schedule: Q04DX002 (ip), vehicle: saline 114 % of control

O=C(O)COc1c(Br)cc(Br)cc1Br
inactive: dose: 50.0 mg/kg/injection, schedule: Q01DX009 (ip), vehicle: Klucel (hydroxypropylcellulose) (HPC) 93 % of control | dose: 100.0 mg/kg/injection, schedule: Q01DX009 (ip), vehicle: Klucel (hydroxypropylcellulose) (HPC) 96 % of control | dose: 200.0 mg/kg/injection, schedule: Q01DX009 (ip), vehicle: Klucel (hydroxypropylcellulose) (HPC) 88 % of control

CCCCCCCCCCCCCC(C1CCCCC1)C1CCCCC1
inactive: [9] 113 % of control | [10] 93 % of control | [11] 95 % of control

N#CC1C(=O)N=C(c2ccccc2)CC1c1ccccc1 (stereo not drawn)
inactive: [9] 86 % of control | [10] 96 % of control | [11] 104 % of control

COC(=O)c1ccccc1NC(=S)NC(=O)c1ccc(Cl)cc1Cl
inactive: [9] 92 % of control | [1] 97 % of control and 102 % of control | [6] 101 % of control and 88 % of control | dose: 100.0 mg/kg/injection, schedule: Q04DX003 (ip), vehicle: saline with Tween-80 87 % of control | [10] 92 % of control | [2] 95 % of control and 97 % of control | [7] 103 % of control and 92 % of control | dose: 200.0 mg/kg/injection, schedule: Q04DX003 (ip), vehicle: saline with Tween-80 90 % of control | [11] 89 % of control | dose: 400.0 mg/kg/injection, schedule: Q01DX009 (ip), vehicle: saline with Tween-80 97 % of control and 98 % of control | [8] 106 % of control and 88 % of control | dose: 400.0 mg/kg/injection, schedule: Q04DX003 (ip), vehicle: saline with Tween-80 92 % of control

C(=N/N=C(N/N=C/c1cccs1)N/N=C/c1cccs1)/c1cccs1
inactive: dose: 15.0 mg/kg/injection, schedule: Q01DX Z (ip), vehicle: carboxymethylcellulose (CMC) 97 % of control | dose: 30.0 mg/kg/injection, schedule: Q01DX Z (ip), vehicle: carboxymethylcellulose (CMC) 89 % of control | dose: 60.0 mg/kg/injection, schedule: Q01DX Z (ip), vehicle: carboxymethylcellulose (CMC) 97 % of control | dose: 120.0 mg/kg/injection, schedule: Q01DX Z (ip), vehicle: carboxymethylcellulose (CMC) 95 % of control and 97 % of control | dose: 240.0 mg/kg/injection, schedule: Q01DX Z (ip), vehicle: carboxymethylcellulose (CMC) 97 % of control | dose: 240.0 mg/kg/injection, schedule: Q01DX Z (oral), vehicle: carboxymethylcellulose (CMC) 107 % of control | dose: 480.0 mg/kg/injection, schedule: Q01DX Z (ip), vehicle: carboxymethylcellulose (CMC) 94 % of control | dose: 480.0 mg/kg/injection, schedule: Q01DX Z (oral), vehicle: carboxymethylcellulose (CMC) 107 % of control | dose: 960.0 mg/kg/injection, schedule: Q01DX Z (oral), vehicle: carboxymethylcellulose (CMC) 105 % of control | dose: 1920.0 mg/kg/injection, schedule: Q01DX Z (oral), vehicle: carboxymethylcellulose (CMC) 111 % of control

CCC(CC)COC(=O)CI
inactive: dose: 5.0 mg/kg/injection, schedule: Q01DX001 (ip), vehicle: saline 100 % of control | dose: 10.0 mg/kg/injection, schedule: Q01DX001 (ip), vehicle: saline 100 % of control | dose: 20.0 mg/kg/injection, schedule: Q01DX001 (ip), vehicle: saline 100 % of control | dose: 40.0 mg/kg/injection, schedule: Q01DX001 (ip), vehicle: saline 100 % of control | dose: 80.0 mg/kg/injection, schedule: Q01DX001 (ip), vehicle: saline 100 % of control

Cc1c(CCO)c(=O)n2n1CCCC2
inactive: dose: 75.0 mg/kg/injection, schedule: Q01DX001 (ip), vehicle: other 108 % of control | dose: 150.0 mg/kg/injection, schedule: Q01DX001 (ip), vehicle: other 100 % of control

CC1(C)CC2C(=O)c3ccccc3NC2c2ccccc21 (stereo not drawn)
inactive: [3] 96 % of control | [4] 102 % of control | dose: 100.0 mg/kg/injection, schedule: Q04DX003 (ip), vehicle: acetone 91 % of control | [5] 98 % of control | dose: 200.0 mg/kg/injection, schedule: Q04DX003 (ip), vehicle: acetone 86 % of control | dose: 400.0 mg/kg/injection, schedule: Q01DX001 (ip), vehicle: carboxymethylcellulose (CMC) 98 % of control | dose: 400.0 mg/kg/injection, schedule: Q04DX003 (ip), vehicle: acetone 93 % of control
